# Results as given in US20230117034A1, “PYRAZOLOTRIAZINES” (Bayer Aktiengesellschaft, priority 2019, published 2023).
# Columns and labels:
# CDK12/CycK = CDK12/CycK (Homo sapiens, UniProt Q9NYV4); experiment: CDK12/CycK high ATP kinase assay (TR-FRET, 2 mM ATP); assay type: biochemical; conditions: 2 mM ATP (high ATP); median; read-out: CDK12/CyclinK, 2 mM ATP (high ATP), IC50-[mol/l] (median)
# In short: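 His-tagged human CDK12/CycK (~0.75 nM) pre-incubated 15 min with compound, then 60 min at 22 °C with 2 mM ATP and 1 µM biotinylated peptide (HEPES pH 7.5, 20 mM MgCl2). EDTA stop; phospho-Ser62 antibody/Eu anti-rabbit and streptavidin-XL665 TR-FRET, 665/620 nm ratio normalised to give IC50.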
# CDK2/CycE = biological target: T1, CDK2/CycE (Homo sapiens, UniProt P24941); experiment: CDK2/CycE kinase assay (TR-FRET, 2 mM ATP); assay type: biochemical; conditions: 2 mM ATP (high ATP); median; read-out: CDK2/CyclinE, 2 mM ATP (high ATP), IC50 (median)
# T1 construct: purchased ProQinase GmbH (Freiburg, Germany); host or cells: insect cells (Sf9)
# In short: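 GST-tagged human CDK2 and CycE from Sf9 cells, about 10 ng/ml, pre-incubated 15 min at 22 °C with compound in Tris/HCl pH 8.0 buffer. Reaction with 2 mM ATP and 0.75 µM biotinylated peptide for 25 min at 22 °C. Phospho-RB antibody TR-FRET (665/620 nm ratio) read after 1 h; data normalised to no-inhibitor and no-enzyme controls.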
# Sequence of CDK12/CycK (Q9NYV4 with tags, fused parts or gaps): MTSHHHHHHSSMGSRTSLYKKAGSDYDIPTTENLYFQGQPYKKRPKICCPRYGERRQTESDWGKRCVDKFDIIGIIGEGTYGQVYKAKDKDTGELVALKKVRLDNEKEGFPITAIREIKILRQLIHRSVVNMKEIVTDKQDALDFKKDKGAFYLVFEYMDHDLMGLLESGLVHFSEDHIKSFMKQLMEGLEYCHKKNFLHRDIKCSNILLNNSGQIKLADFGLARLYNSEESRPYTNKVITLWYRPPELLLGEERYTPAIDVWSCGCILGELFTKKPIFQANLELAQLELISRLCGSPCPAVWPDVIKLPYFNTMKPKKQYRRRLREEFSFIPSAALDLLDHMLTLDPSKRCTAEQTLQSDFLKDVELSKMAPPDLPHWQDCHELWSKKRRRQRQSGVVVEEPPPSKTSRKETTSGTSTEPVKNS
# Sequence of CDK12/CycK (O75909 1-300 partner limits assumed): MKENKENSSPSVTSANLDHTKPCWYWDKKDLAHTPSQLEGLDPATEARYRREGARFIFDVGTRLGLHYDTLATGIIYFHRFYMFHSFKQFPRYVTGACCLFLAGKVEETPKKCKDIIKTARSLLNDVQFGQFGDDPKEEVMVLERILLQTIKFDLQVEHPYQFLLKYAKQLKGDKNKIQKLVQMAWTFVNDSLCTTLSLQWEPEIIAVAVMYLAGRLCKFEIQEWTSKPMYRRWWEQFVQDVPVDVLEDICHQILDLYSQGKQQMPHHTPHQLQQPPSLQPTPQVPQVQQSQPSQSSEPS
Structure (SMILES),IC50 (CDK12/CycK) [µM],IC50 (CDK2/CycE) [µM]
"c1ccc2[nH]c(CNc3nc(N4C[C@@H]5C[C@H]4CO5)nc4c(C5CC5)cnn34)nc2c1 [Example 254, N-[(1H-benzimidazol-2-yl)methyl]-8-cyclopropyl-2-[(1S,4S)-2-oxa-5-azabicyclo[2.2.1]heptan-5-yl]pyrazolo[1,5-a][1,3,5]triazin-4-amine]",> 20,> 20
"CN1CCN(c2nc(NCc3nc4cc(F)c(Cl)cc4[nH]3)n3ncc(C4CC4)c3n2)CC1 [Example 309, N-[(6-chloro-5-fluoro-1H-benzimidazol-2-yl)methyl]-8-cyclopropyl-2-(4-methylpiperazin-1-yl)pyrazolo[1,5-a][1,3,5]triazin-4-amine]",> 20,> 20
"Fc1ccc2[nH]c(CNc3nc(N4C[C@H]5CC[C@@H](C4)N5)nc4c(C5CC5)cnn34)nc2c1F [Example 294, 8-cyclopropyl-2-[(1R,5S)-3,8-diazabicyclo[3.2.1]octan-3-yl]-N-[(4,5-difluoro-1H-benzimidazol-2-yl)methyl]pyrazolo[1,5-a][1,3,5]triazin-4-amine]",1.86,17.2
"Fc1ccc2[nH]c(CNc3nc(N4CC5CCC(C4)N5)nc4c(C(F)(F)F)cnn34)nc2c1F [Example 310, 2-(3,8-diazabicyclo[3.2.1]octan-3-yl)-N-[(4,5-difluoro-1H-benzimidazol-2-yl)methyl]-8-(trifluoromethyl)pyrazolo[1,5-a][1,3,5]triazin-4-amine]",1.29,> 18.6
"N[C@@H]1CN(c2nc(NCc3nc4ccccc4[nH]3)n3ncc(Br)c3n2)CC12CC2 [Example 251, 2-[(7S)-7-amino-5-azaspiro[2.4]heptan-5-yl]-N-[(1H-benzimidazol-2-yl)methyl]-8-bromopyrazolo[1,5-a][1,3,5]triazin-4-amine]",0.972,2.58
"CC1CN(C)CCN1c1nc(NCc2nc3ccccc3[nH]2)n2ncc(Br)c2n1 (single isomer, unassigned; enantiomer 2) [Example 261, N-(1H-benzimidazol-2-ylmethyl)-8-bromo-2-[(2R or S)-2,4-dimethylpiperazin-1-yl]pyrazolo[1,5-a][1,3,5]triazin-4-amine (Enantiomer 2)]",> 18.7,7.29
"Fc1ccc2[nH]c(CNc3nc(N4CCOCC4)nc4c(C(F)(F)F)cnn34)nc2c1 [Example 273, N-[(5-fluoro-1H-benzimidazol-2-yl)methyl]-2-(morpholin-4-yl)-8-(trifluoromethyl)pyrazolo[1,5-a][1,3,5]triazin-4-amine]",0.983,
"FC(F)(F)c1cnn2c(NCc3nc4cc(Cl)ccc4[nH]3)nc(N3CCOCC3)nc12 [Example 275, N-[(5-chloro-1H-benzimidazol-2-yl)methyl]-2-(morpholin-4-yl)-8-(trifluoromethyl)pyrazolo[1,5-a][1,3,5]triazin-4-amine]",0.0973,> 20
"N[C@@H]1CCN(c2nc(NCc3nc4ccccc4[nH]3)n3ncc(Br)c3n2)C1 [Example 250, 2-[(3R)-3-aminopyrrolidin-1-yl]-N-[(1H-benzimidazol-2-yl)methyl]-8-bromopyrazolo[1,5-a][1,3,5]triazin-4-amine]",11.3,12.8
"CC1(O)CCN(c2nc(NCc3nc4ccccc4[nH]3)n3ncc(Br)c3n2)C1 (single isomer, unassigned) [Example 282, (3R or S)-1-(4-{[(1H-benzimidazol-2-yl)methyl]amino}-8-bromopyrazolo[1,5-a][1,3,5]triazin-2-yl)-3-methylpyrrolidin-3-ol]",> 8.95,10.2
"CN(CC(C)(C)O)c1nc(NCc2nc3c(F)cccc3[nH]2)n2ncc(C3CC3)c2n1 [Example 295, 1-[(8-cyclopropyl-4-{[(4-fluoro-1H-benzimidazol-2-yl)methyl]amino}pyrazolo[1,5-a][1,3,5]triazin-2-yl)(methyl)amino]-2-methylpropan-2-ol]",0.829,2.06
"Clc1cc2nc(CNc3nc(N4CCOCC4)nc4c(C5CC5)cnn34)[nH]c2cc1Cl [Example 301, 8-cyclopropyl-N-[(5,6-dichloro-1H-benzimidazol-2-yl)methyl]-2-(morpholin-4-yl)pyrazolo[1,5-a][1,3,5]triazin-4-amine]",1.18,> 20
"Cc1cc2nc(CNc3nc(N4CCN(C)CC4)nc4c(C5CC5)cnn34)[nH]c2cc1C [Example 312, 8-cyclopropyl-N-[(5,6-dimethyl-1H-benzimidazol-2-yl)methyl]-2-(4-methylpiperazin-1-yl)pyrazolo[1,5-a][1,3,5]triazin-4-amine]",10.2,> 12.5
"Brc1cnn2c(NCc3nc4ccccc4[nH]3)nc(N3C[C@@H]4CN[C@@H]4C3)nc12.O=C(O)C(F)(F)F [Example 267, trifluoroacetic acid-N-[(1H-benzimidazol-2-yl)methyl]-8-bromo-2-[(1S,5S)-3,6-diazabicyclo[3.2.0]heptan-3-yl]pyrazolo[1,5-a][1,3,5]triazin-4-amine (1/1)]",> 20,16.1
"Cc1ccnc2[nH]c(CNc3nc(N4CCOCC4)nc4c(Br)cnn34)nc12 [Example 20, 8-bromo-N-[(7-methyl-3H-imidazo[4,5-b]pyridin-2-yl)methyl]-2-(morpholin-4-yl)pyrazolo[1,5-a][1,3,5]triazin-4-amine]",1.75,1.72
"FC(F)(F)Cc1cnn2c(NCc3nc4cc(Cl)c(Cl)cc4[nH]3)nc(N3CCOCC3)nc12 [Example 302, N-[(5,6-dichloro-1H-benzimidazol-2-yl)methyl]-2-(morpholin-4-yl)-8-(2,2,2-trifluoroethyl)pyrazolo[1,5-a][1,3,5]triazin-4-amine]",5.96,> 20
"CN1CCN(c2nc(NCc3nc4ccccc4[nH]3)n3ncc(Br)c3n2)C(CO)C1 (single isomer, unassigned) [Example 280, [(2R or S)-1-(4-{[(1H-benzimidazol-2-yl)methyl]amino}-8-bromopyrazolo[1,5-a][1,3,5]triazin-2-yl)-4-methylpiperazin-2-yl]methanol]",14.5,17.4
"FC1(F)CC1c1cnn2c(NCc3nc4ccccc4[nH]3)nc(N3CCOCC3)nc12 (stereo not shown) [Example 279, N-[(1H-benzimidazol-2-yl)methyl]-8-(2,2-difluorocyclopropyl)-2-(morpholin-4-yl)pyrazolo[1,5-a][1,3,5]triazin-4-amine]",14,> 20
CCNC1CCN(c2nc(NCc3nc4ccccc4[nH]3)n3ncc(Br)c3n2)CC1 [Example 300],> 20,> 19.7
"Fc1cc2nc(CNc3nc(N4CCOCC4)nc4c(C5CC5)cnn34)[nH]c2cc1Cl [Example 307, N-[(6-chloro-5-fluoro-1H-benzimidazol-2-yl)methyl]-8-cyclopropyl-2-(morpholin-4-yl)pyrazolo[1,5-a][1,3,5]triazin-4-amine]",1.57,> 20
"Fc1cccc2[nH]c(CNc3nc(N4CCOCC4)nc4c(C(F)(F)F)cnn34)nc12 [Example 274, N-[(4-fluoro-1H-benzimidazol-2-yl)methyl]-2-(morpholin-4-yl)-8-(trifluoromethyl)pyrazolo[1,5-a][1,3,5]triazin-4-amine]",0.0395,> 12.9
"CN1CCN(c2nc(NCc3nc4cc(Cl)ccc4[nH]3)n3ncc(C(F)(F)F)c3n2)CC1 [Example 298, N-[(5-chloro-1H-benzimidazol-2-yl)methyl]-2-(4-methylpiperazin-1-yl)-8-(trifluoromethyl)pyrazolo[1,5-a][1,3,5]triazin-4-amine]",8.31,> 19.5
"Brc1cnn2c(NCc3nc4ccccc4[nH]3)nc(N3C[C@@H]4C[C@H]3CN4)nc12 [Example 270, N-[(1H-benzimidazol-2-yl)methyl]-8-bromo-2-[(1S,4S)-2,5-diazabicyclo[2.2.1]heptan-2-yl]pyrazolo[1,5-a][1,3,5]triazin-4-amine]",13.7,1.79
"Brc1cnn2c(NCc3nc4ccccc4[nH]3)nc(N3C[C@H]4C[C@@H]3CN4)nc12 [Example 269, N-[(1H-benzimidazol-2-yl)methyl]-8-bromo-2-[(1R,4R)-2,5-diazabicyclo[2.2.1]heptan-2-yl]pyrazolo[1,5-a][1,3,5]triazin-4-amine]",8.61,4.84
"CC(C)CNc1nc(NCc2nc3ccccc3[nH]2)n2ncc(Br)c2n1 [Example 285, N^4-[(1H-benzimidazol-2-yl)methyl]-8-bromo-N^2-(2-methylpropyl)pyrazolo[1,5-a][1,3,5]triazine-2,4-diamine]",6.44,2.55
"Fc1cccc2[nH]c(CNc3nc(N4C[C@H]5CC[C@@H](C4)N5)nc4c(C5CC5)cnn34)nc12 [Example 296, 8-cyclopropyl-2-[(1R,5S)-3,8-diazabicyclo[3.2.1]octan-3-yl]-N-[(4-fluoro-1H-benzimidazol-2-yl)methyl]pyrazolo[1,5-a][1,3,5]triazin-4-amine]",2.48,5.61
"CN1CCN(c2nc(NCc3nc4c(F)cccc4[nH]3)n3ncc(C(F)(F)F)c3n2)CC1 [Example 293, N-[(4-fluoro-1H-benzimidazol-2-yl)methyl]-2-(4-methylpiperazin-1-yl)-8-(trifluoromethyl)pyrazolo[1,5-a][1,3,5]triazin-4-amine]",5.91,
